# Legend:
# phospho-MEK = phospho-MEK ELISA in ST88 cells; type: cell-based
# From the text: (§1) Pathway inhibition and anti-proliferative activity of RAF265 in ST88 cells.
# ST88 cells = experiment: Proliferation of ST88 cells; type: cell-based
# From the text: as §1
# [1] = system: VEGF-CHO cells induced angiogenesis; experiment: Matrigel plug angiogenesis model with VEGF-CHO cells, hemoglobin by Drabkin's reagent; type: in vivo; settings: mice, dosed days 1 and 4, plugs excised day 5
# From the text: Due to the inhibition of VEGFR-2, RAF265 also has anti-angiogenic activity which may also provide a therapeutic benefit in treating neurofibromas. To confirm that RAF265 inhibits the growth of new blood vessels (i.e., angiogenesis) in vivo, mice were implanted with Matrigel® containing Chinese hamster ovary cells (CHO) overexpressing VEGF and then treated mice with a dose range of RAF265 or a vehicle control (days 1 and 4). In this model, VEGF expressed from the CHO cells induces angiogenesis within the Matrigel® plug. Plugs are excised on day 5 and assayed for hemoglobin using Drabkin's reagent, as a measure of the degree of angiogenesis.
# phospho-ERK = phospho-ERK ELISA in ST88 cells; type: cell-based
# From the text: as §1
structure (smiles),measurement,setting,value
Cn1c(Nc2ccc(C(F)(F)F)cc2)nc2cc(Oc3ccnc(-c4ncc(C(F)(F)F)[nH]4)c3)ccc21 [Compound of Example 1],EC50,phospho-MEK,150 nM
same,EC50,ST88 cells,207 nM
same,dose of maximal suppression of hemoglobin content,[1],50 mg/kg
same,hemoglobin content of Matrigel plug,[1],dose-dependent decrease in hemoglobin content
same,EC50,phospho-ERK,185 nM

# — patent US20110281917A1, “Substituted Benzimidazoles for the Treatment of Astrocytomas” (priority 2009, published 2011)
